Measurements as given in patent US9486440B2, “Uses of indole-ketones or indolidones as neuro-protective drugs” (UNIVERSITY OF MACAU, priority 2011, dated 2016).
“Also recorded” adds a separate entry of the source.

What was measured:
CGNs [1] = test: MPP+-induced neurotoxicity in CGNs, MTT and LDH assays; format: cell-based, rat
Description: (§1) All animal experiments were conducted according to the ethical guidelines of ICMS, Macau University and the Animal Care Facility, The Hong Kong Polytechnic University. Rat CGNs were prepared from 8-day-old Sprague-Dawley rats (The Animal Care Facility, The Hong Kong Polytechnic University) as described by Li et al., 2005. Briefly, neurons were seeded at a density of 2.7×10^5 cells/ml in basal modified Eagle's medium (Invitrogen) containing 10% fetal bovine serum, 25 mM KCl, 2 mM glutamine, and penicillin (100 units/ml)/streptomycin (100 μg/ml). Cytosine arabinoside (10 μM) was added to the culture medium 24 hour after plating to limit the growth of non-neuronal cells. With the use of this protocol, more than 95% of the cultured cells were granule neurons.
(§2) The percentage of surviving neurons in the presence of SU4312 and/or MPP^+ was estimated by determining the activity of mitochondrial dehydrogenases with 3(4,5-dimethylthiazol-2-yl)-2.5-diphenyltetrazolium bromide (MTT) assay (Li et al., 2007). The assay was performed according to the specifications of the manufacturer (MTT kit I; Roche Applied Science). Briefly, the neurons were cultured in 96-well plates, 10 μl of 5 mg/ml MTT labeling reagent was added to each well containing cells in 100 μl of medium, and the plates were incubated for 4 hours in a humidified incubator at 37° C. After the incubation, 100 μl of the solvating solution (0.01 N HCl in 10% SDS solution) was added to each well for 16-20 hours. Absorbance of the samples was measured at a wavelength of 570 nm with 655 nm as a reference wavelength. Unless otherwise indicated, the extent of MTT conversion in cells exposed to MPP^+ is expressed as a percentage of the control.
Cytotoxicity was determined by measuring the release of lactate dehydrogenase (LDH). Briefly, cells were precipitated by centrifugation at 500 g for 5 min at room temperature, 50 μl of the supernatants was transferred into new wells, and LDH was determined using the in vitro toxicology assay kit (Roche). The absorbance of the samples was measured at a wavelength of 490 nm with 655 nm as a reference wavelength.
as §1, with “Rat” for “All animal experiments were conducted according to the ethical guidelines of ICMS, Macau University and the Animal Care Facility, The Hong Kong Polytechnic University. Rat”, “hours” for “hour”
as §2, with “The” for “The percentage of surviving neurons in the presence of SU4312 and/or MPP^+ was estimated by determining the activity of mitochondrial dehydrogenases with 3(4,5-dimethylthiazol-2-yl)-2.5-diphenyltetrazolium bromide (MTT) assay (Li et al., 2007). The”, “incubated at 37° C.” for “incubated”, “incubator.” for “incubator at 37° C.”, “The absorbance” for “Absorbance”

SH-SY5Y cells [2] = test: MPP+-induced neurotoxicity in SH-SY5Y cells, MTT assay; format: cell-based, human; details: for MPP+-induced neuronal death in SH-SY5Y cells (MTT): pre-treatment 2 hours, then 1 mM MPP+ for 24 hours
Description: The human neuroblastoma SH-SY5Y cells were obtained from ATCC. The cells were maintained in supplemented Dulbecco's modified eagle medium (DMEM), 10% fetal bovine serum, 100 U/ml penicillin, and 100 μg/ml streptomycin in a 37° C., 5% CO2 incubator. PC12 pheochromocytoma cells were also obtained from ATCC. The cells were cultured in medium that consisted of DMEM, 10% heat-inactivated horse serum, 5% fetal bovine serum, 100 U/ml penicillin, and 100 μg/ml streptomycin in a 37° C., 5% CO2 incubator. All experiments were carried out 48 hours after the cells were seeded. […] The assay was performed according to the specifications of the manufacturer (MTT kit I; Roche Applied Science). […] After the incubation, 100 μl of the solvating solution (0.01 N HCl in 10% SDS solution) was added to each well for 16-20 hours. Absorbance of the samples was measured at a wavelength of 570 nm with 655 nm as a reference wavelength. Unless otherwise indicated, the extent of MTT conversion in cells exposed to MPP^+ is expressed as a percentage of the control.

intracellular NO [3] = test: Intracellular NO in CGNs after MPP+ (DAF-FM diacetate); format: cell-based, rat; details: pre-treatment 2 hours, 35 μM MPP+, 24 hours; SU4312 3-30 μM, 7-NI 3-10 μM
Description: (§3) Intracellular NO was monitored with 4-Amino-5-methylamino-2′,7′-difluorofluorescein (DAF-FM) diacetate, a pH-insensitive fluorescent dye that emits increased fluorescence after reaction with an active intermediate of NO formed during the spontaneous oxidation of NO to NO2 (Sheng et al., 2005). DAF-FM solution was added to the culture medium (final concentration: 5 μM). After 30 min in a CO2 incubator, cultures were washed twice with PBS and incubated for an additional 30 min to allow complete de-esterification of the intracellular diacetate for stronger fluorescence. The DAF-FM fluorescence in CGNs was quantified by a multi-detection microplate reader using excitation and emission wavelengths of 495 nm and 515 nm, respectively. The measured fluorescence values were expressed as a percentage of the fluorescence in the control cells.
as §3, with “(4-amino-5-methylamino-2′,7′-difluorofluorescein) DAF-FM” for “4-Amino-5-methylamino-2′,7′-difluorofluorescein (DAF-FM)”, “After incubation for” for “After”, “another” for “an additional”, “strong” for “stronger”

nNOS = nNOS (Homo sapiens, UniProt P29475); details: cited from earlier work
iNOS [4] = target: T1, iNOS (Homo sapiens, UniProt P35228); details: cited from earlier work
CGNs [5] = details: VEGF 10-300 ng/ml; cited from earlier work
rat cerebellum nNOS = target: T2, rat cerebellum nNOS (Rattus norvegicus, UniProt P29476); test: In vitro nNOS activity assay, rat cerebellum nNOS; format: biochemical
T2 construct: purchased Calbiochem
Description: Rat cerebellum nNOS was from Calbiochem. NOS activity was determined by monitoring the conversion of L-[3H]arginine to [3H]citrulline following the instructions provided by the kit (Calbiochem). The reaction mixture contained a final volume of 40 μl with 25 mM Tris-Cl at pH 7.4, 3 μM tetrahydrobiopterin, 1 μM FAD, 1 μM FMN, 1 mM NADPH, 0.6 mM CaCl2, 0.1 μM calmodulin, 2.5 μg of pure NOS enzyme, 5 μl L-[3H]arginine (Perkin Elmer, Waltham, Mass., USA), and different concentrations of the tested reagents. The reaction mixture was incubated at 22° C. for 45 min. The reaction was quenched by adding 400 μl of stopping buffer (50 mM HEPES, pH 5.5, and 5 mM EDTA). Unreacted L-[3H]arginine was then trapped by 100 μl of equilibrated resin in a spin cup followed by centrifugation at 13,200 rpm for 30 s.

CGNs [6] = test: Low potassium-induced cell death in CGNs, MTT assay; format: cell-based; details: 5 mM KCl BME medium, 24 hours; sunitinib 0.1-2 μM
Description: (§4) Cell viability was measured by MTT assay at 24 hours after low potassium challenge. […] After 24 hours of low potassium challenge, CGNs were assayed with an FDA/PI double staining. […] After 24 hours of low potassium challenge, CGNs were assayed with Hoechst staining. The number of apoptotic nuclei with condensed chromatin were counted from representative Hoechst staining photomicrographs and represented as a percentage of the total number of nuclei counted. […] Intracellular NO level was measured using DAF-FM diacetate as a probe at 4 hour after low potassium challenge. Data, expressed as percentage of control (CGNs were cultured in high potassium medium), were the mean±SEM of three separate experiments; *p<0.05 and **p<0.01 versus low potassium group in (A) and (D) or versus control in (C); ^##p<0.01 versus low potassium group in (C) (Turkey's test).
It was previously reported that low potassium could induce typical apoptosis in cerebellar granule neurons (CGNs) (Fu et al., 2008). […] Cell viability was measured with an MTT assay 24 hours after the low potassium treatment.

CGNs [7] = test: FDA/PI double staining of CGNs after low potassium; format: cell-based; details: 1.5 μM, 24 hours
Description: as §4
(§5) The neurons were examined by FDA/PI double staining.

CGNs [8] = test: Hoechst 33342 staining of CGNs after low potassium; format: cell-based; details: 1.5 μM, 24 hours
Description: as §4, §5

intracellular NO [9] = test: Intracellular NO in CGNs after low potassium; format: cell-based; details: 1.5 μM, 4 hour after low potassium challenge
Description: as §4

intracellular NO [10] = test: Intracellular NO in SH-SY5Y cells after MPP+; format: cell-based, human; details: 0.3 μM 2 hours, then 1 mM MPP+ 24 hours
Description: Cell viability was measured by the MTT assay at 24 hours after MPP^+ challenge. […] Intracellular NO level was measured using DAF-FM diacetate as a probe at 24 hour after MPP^+ challenge. Data, expressed as percentage of control, were the mean±SEM of three separate experiments; *p<0.05 and **p<0.01 versus MPP^+ group (ANOVA and Dunnett's test).
DAF-FM diacetate was also used to evaluate the intracellular NO level in this model.

iNOS [11] = target: T1, iNOS; test: In vitro NOS activity assay of Example 3, iNOS; format: biochemical; details: 100 μM; data not shown
eNOS = eNOS (Homo sapiens, UniProt P29474); test: In vitro NOS activity assay of Example 3, eNOS; format: biochemical; details: 100 μM; data not shown
[12] = tested on: nNOS knockdown SH-SY5Y cells; test: MPP+ in ShRNA-mediated nNOS knockdown SH-SY5Y cells; format: cell-based, human; details: 0.3 μM 2 hours, then 1 mM MPP+ 24 hours
Description: (A) SH-SY5Y cells were transfected with pG418-GFP plasmid (vector), pG418-GFP plasmid encoding nNOS ShRNA (ShnNOS) and pG418-GFP plasmid encoding negative control ShRNA (ShNC). The level of nNOS and β-actin in the cell lysates were analyzed by Western blotting assay by using specific antibodies. […] Cell viability was measured at 24 hours after MPP^+ challenge by MTT assays. Data were the mean±SEM of three separate experiments; **p<0.01 versus control; ^##p<0.01 versus MPP^+ group; ^&p<0.05 versus MPP^+ vector group (Turkey's test).

SH-SY5Y cells [13] = details: sustained (3 days) treatment, >1 μM; cited from earlier work
[14] = daily oral administration; cited from earlier work
[15] = cited from earlier work

With `O=[N+]([O-])c1cccc2cn[nH]c12` [7-nitroindazole] the “MPP+-induced cell death (cell viability, MTT and LDH assays)” value (CGNs [1]; pre-treatment 2 hours, then 35 μM MPP+ for 24 hours) was “inhibited neuronal death; also recorded: protected against neuronal apoptosis”, the “MPP+-induced neuronal death in SH-SY5Y cells (MTT)” value (SH-SY5Y cells [2]) was “at 5-10 μM prevented MPP^+-induced neuronal death” and the “MPP+-induced elevation of intracellular NO level” value (intracellular NO [3]) was “inhibited neuronal death and elevated level of intracellular NO induced by MPP^+”. For the same compound, the IC50 (nNOS) was 0.7 µM and the IC50 (iNOS [4]) was 20 µM.
For VEGF, the “MPP+-induced neurotoxicity in CGNs (earlier study)” value (CGNs [5]) is given as “protected neurons against MPP^+-induced neurotoxicity”.
For `CCN(CC)CCNC(=O)c1c(C)[nH]c(/C=C2\C(=O)Nc3ccc(F)cc32)c1C` [Sunitinib, N-(2-diethylaminoethyl)-5-[(Z)-(5-fluoro-2-oxo-1H-indol-3-ylidene)methyl]-2,4-dimethyl-1H-pyrrole-3-carboxamide], the “cell proliferative or cytotoxic effects of the drug alone” value (CGNs [1]) was “did not show cell proliferative or cytotoxic effects”, the “cell proliferative or cytotoxic effects of the drug alone, SH-SY5Y cells” value (SH-SY5Y cells [2]) was “did not show cell proliferative or cytotoxic effects” and the “toxicity to SH-SY5Y cells at higher concentration” value (SH-SY5Y cells [2]; higher concentration (sunitinib 1 μM), data not shown) was “at higher concentration (1 μM) showed toxicity to SH-SY5Y cells”. The “MPP+-induced neuronal death in SH-SY5Y cells (MTT)” value (SH-SY5Y cells [2]) was “prevented MPP^+-induced neuronal death at 0.1-0.3 μM”, the IC50 (rat cerebellum nNOS) was 9.6 µM and the “low potassium-induced cell death (MTT)” value (CGNs [6]) was “unexpectedly prevented low potassium-induced cell death in CGNs in a concentration-dependent manner”. The “loss of neurons and morphological alteration induced by low potassium (FDA/PI)” value (CGNs [7]) was “significantly blocked the loss of neurons and reversed the morphological alteration”, the “neuronal apoptosis induced by low potassium (Hoechst 33342)” value (CGNs [8]) was “significantly reversed neuronal apoptosis induced by low potassium” and the “low potassium-stimulated NO production” value (intracellular NO [9]) was “antagonized the stimulatory effect of low potassium on the NO production”. For the same compound, the “MPP+-triggered elevation of intracellular NO level in SH-SY5Y cells” value (intracellular NO [10]) was “attenuated MPP^+-triggered elevation of intracellular NO level”, the “inhibitory activity against iNOS” value (iNOS [11]) was “showed no inhibitory activity against iNOS or eNOS” and the “inhibitory activity against eNOS” value (eNOS) was “showed no inhibitory activity against iNOS or eNOS”. For the same compound, the “MPP+-induced cell death in nNOS knockdown SH-SY5Y cells (MTT)” value [12] was “did not significantly inhibit MPP^+-induced cell death”, the “proliferation of SH-SY5Y cells (previous studies)” value (SH-SY5Y cells [13]) was “could reduce the proliferation of SH-SY5Y cells” and the “human plasma steady-state level” value [14] was 50 to 100 ng/mL. For the same compound, the “sunitinib still accumulated in the brain” value ([15]; 60 min following administration) was 25% and the “sunitinib retained in the brain” value ([15]; 6 hour after oral administration) was 60 ng/mL.
